For this test, the target named is T1, rat hepatic microsomal HMG CoA reductase (Rattus norvegicus, UniProt P51639).
T1 construct: rat hepatic microsomal HMG CoA reductase activity in vitro; from tissue; host or cells: rat liver microsomes
T1 sequence (P51639 1-887): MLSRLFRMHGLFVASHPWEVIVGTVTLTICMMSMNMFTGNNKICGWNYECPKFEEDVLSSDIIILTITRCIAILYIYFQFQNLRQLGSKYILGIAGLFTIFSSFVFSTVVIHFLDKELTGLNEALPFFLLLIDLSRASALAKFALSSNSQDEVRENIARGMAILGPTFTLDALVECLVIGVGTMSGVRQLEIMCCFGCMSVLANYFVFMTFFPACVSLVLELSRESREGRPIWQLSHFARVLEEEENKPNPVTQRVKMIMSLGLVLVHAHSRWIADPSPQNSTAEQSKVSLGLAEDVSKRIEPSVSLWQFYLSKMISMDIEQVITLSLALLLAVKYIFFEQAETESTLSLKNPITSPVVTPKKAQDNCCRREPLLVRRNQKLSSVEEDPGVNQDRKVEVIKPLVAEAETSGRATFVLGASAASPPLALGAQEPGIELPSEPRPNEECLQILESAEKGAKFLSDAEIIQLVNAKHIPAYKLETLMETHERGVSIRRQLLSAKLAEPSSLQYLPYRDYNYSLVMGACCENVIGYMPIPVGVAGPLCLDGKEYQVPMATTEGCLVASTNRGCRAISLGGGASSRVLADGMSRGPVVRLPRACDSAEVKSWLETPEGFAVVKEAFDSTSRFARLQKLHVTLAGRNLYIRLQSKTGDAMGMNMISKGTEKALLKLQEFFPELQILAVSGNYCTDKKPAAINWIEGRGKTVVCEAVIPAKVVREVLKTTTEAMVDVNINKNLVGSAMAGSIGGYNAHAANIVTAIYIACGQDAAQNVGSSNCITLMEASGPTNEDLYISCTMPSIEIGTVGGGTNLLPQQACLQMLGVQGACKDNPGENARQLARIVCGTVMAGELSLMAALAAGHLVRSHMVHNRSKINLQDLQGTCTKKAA
In words: inhibition of rat hepatic microsomal HMG CoA reductase activity in vitro. It is filed as biochemical. To be noted: for inhibition at 0.027 µg/mL: 0.027 micrograms/ml; for inhibition at 0.082 µg/mL: 0.082 micrograms/ml; for inhibition at 0.25 µg/mL: 0.25 micrograms/ml; for inhibition at 0.74 µg/mL: 0.74 micrograms/ml; for inhibition at 2.22 µg/mL: 2.22 micrograms/ml; for inhibition at 6.67 µg/mL: 6.67 micrograms/ml; for inhibition at 0.24 µg/mL: 0.24 micrograms/ml; for inhibition at 6.66 µg/mL: 6.66 micrograms/ml; for inhibition at 20 µg/mL: 20.0 micrograms/ml. The source says: In the table the concentrations of the test compounds are expressed in micrograms/ml.

As usually defined, the inhibition is the drop in the measured response relative to a control, in per cent. A high value points to a response far below the control.

SMILES strings stand for the structures.

Turning to `CC(C)c1c(/C=C/C(O)CC(O)CC(=O)O)c(-c2ccc(F)cc2)c2c3ccccc3cnn12` (stereo not drawn) [Compound D, sodium (E)-7-{1-(4-fluorophenyl)-3-isopropylpyrrolo[2,1-a]-phthalazin-2-yl)-3,5-dihydroxyhept-6-enoate], the inhibition at 0.027 µg/mL came to 47%, testing at 0.082 µg/mL gave an inhibition of 50%, the inhibition at 0.25 µg/mL came out at 61% and the inhibition at 0.74 µg/mL was determined as 66%. Also, at 2.22 µg/mL the inhibition was 76% and the inhibition at 6.67 µg/mL is 90%.
With `CC(C)c1c(/C=C/[C@@H](O)C[C@H](O)CC(=O)O)c(-c2ccc(F)cc2)c2c3ccccc3cnn12` (relative stereo) [Compound DB, sodium threo-(E)-7-{1-(4-fluorophenyl)-3-isopropylpyrrolo[2,1-a]-phthalazin-2-yl}-3,5-dihydroxyhept-6-enoate], testing at 0.082 µg/mL gave an inhibition of 34%, the inhibition at 0.24 µg/mL is 45%, the inhibition at 0.74 µg/mL came out at 52% and the inhibition at 2.22 µg/mL amounted to 67%. Moreover, 6.66 µg/mL produced 85% inhibition. Under “0.27 micrograms/ml (so in the source)”, this molecule displayed an inhibition at 0.27 µg/mL of 29%.
Molecule `CC(C)c1c(/C=C/C(=O)CC(O)CC(=O)O)c(-c2ccc(F)cc2)c2c3ccccc3cnn12` (stereo not drawn) [Compound G, sodium (E)-7-{1-(4-fluorophenyl)-3-isopropylpyrrolo[2,1-a]phthalazin-2-yl)-3-hydroxy-5-oxohept-6-enoate] had an inhibition at 0.74 µg/mL of 29%, an inhibition at 2.22 µg/mL of 52%, an inhibition at 6.66 µg/mL of 77% and an inhibition at 20 µg/mL of 92%.
For the molecule `CC(C)c1c(/C=C/[C@@H](O)C[C@@H](O)CC(=O)O)c(-c2ccc(F)cc2)c2c3ccccc3cnn12` (relative stereo) [Compound DA, sodium erythro-(E)-7-{1-(4-fluorophenyl)-3-isopropylpyrrolo[2,1-a]phthalazin-2-yl}-3,5-dihydroxyhept-6-enoate], the inhibition at 0.027 µg/mL amounted to 49%, at 0.082 µg/mL the inhibition was 58%, the inhibition at 0.24 µg/mL was found to be 72% and testing at 0.74 µg/mL gave an inhibition of 86%. Also, the inhibition at 2.22 µg/mL worked out at 94% and testing at 6.66 µg/mL gave an inhibition of 98%.
As to `CCOC(=O)C[C@H](O)C[C@H](O)/C=C/c1c(-c2ccc(F)cc2)c2c3ccccc3cnn2c1C(C)C` (relative stereo) [CA, ethyl erythro-(E)-7-{1-(4-fluorophenyl)-3-isopropylpyrrolo[2,1-a]phthalazin-2-yl)-3,5-dihydroxyhept-6-enoate], 0.027 µg/mL produced 23% inhibition, at 0.082 µg/mL the inhibition was 33%, 0.24 µg/mL produced 47% inhibition and 0.74 µg/mL produced 65% inhibition. Moreover, the inhibition at 2.22 µg/mL stood at 85% and at 6.66 µg/mL the inhibition was 95%.
For `CC(C)c1c(/C=C/C(O)CC(O)CC(=O)O)c(-c2ccccc2)c2c3ccccc3cnn12` (stereo not drawn) [Compound B, sodium (E)-3,5-dihydroxy-7-(3-isopropyl-1-phenylpyrrolo[2,1-a]phthalazin-2-yl)-hept-6-enoate], the inhibition at 0.25 µg/mL was 38%, the inhibition at 0.74 µg/mL is 56%, testing at 2.22 µg/mL gave an inhibition of 74% and at 6.67 µg/mL the inhibition was 90%. Testing at 20 µg/mL gave an inhibition of 98%.

Values taken from US4960775A, “Pyrrolophthalazines” (May & Baker Limited, priority 1987, dated 1990).
